Experiments:
[1] = biological target: Beta-1 adrenergic receptor (Homo sapiens, UniProt P08588); assay: DRUGMATRIX: Adrenergic beta1 radioligand binding (ligand: [125I] Cyanopindolol); type: cell membranes, CHO-K1, Membrane; details: cho-k1; Not Active = under 50% inhibition at 10 µM
[2] = DRUGMATRIX: Tumor Necrosis Factor (TNF), Non-Selective radioligand binding (ligand: [125I] TNF-alpha); type: cell membranes, Membrane; details: u-937; Not Active = under 50% inhibition at 10 µM
[3] = biological target: T1, C-X-C chemokine receptor type 2 (Homo sapiens, UniProt P25025); type: cell membranes, Membrane; details: cho-k1; note: in other assays of this panel Not Active means under 50% inhibition at 10 µM
T1 sequence (P25025 whole entry): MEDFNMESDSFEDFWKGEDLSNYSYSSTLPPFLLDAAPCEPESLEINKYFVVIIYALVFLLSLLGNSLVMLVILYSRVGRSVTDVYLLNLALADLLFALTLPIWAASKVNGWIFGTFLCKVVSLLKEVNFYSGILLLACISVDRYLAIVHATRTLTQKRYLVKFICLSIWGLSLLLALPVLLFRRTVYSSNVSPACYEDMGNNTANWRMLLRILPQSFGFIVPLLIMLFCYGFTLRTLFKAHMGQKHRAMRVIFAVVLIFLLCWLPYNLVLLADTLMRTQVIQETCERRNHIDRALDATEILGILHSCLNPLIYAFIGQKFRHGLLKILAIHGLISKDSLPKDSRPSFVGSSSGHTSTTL

[4] = biological target: T2, Cholecystokinin receptor type A (Homo sapiens, UniProt P32238); type: cell membranes, Membrane; details: 1321-n1; note: in other assays of this panel Not Active means under 50% inhibition at 10 µM
T2 sequence (P32238 whole entry): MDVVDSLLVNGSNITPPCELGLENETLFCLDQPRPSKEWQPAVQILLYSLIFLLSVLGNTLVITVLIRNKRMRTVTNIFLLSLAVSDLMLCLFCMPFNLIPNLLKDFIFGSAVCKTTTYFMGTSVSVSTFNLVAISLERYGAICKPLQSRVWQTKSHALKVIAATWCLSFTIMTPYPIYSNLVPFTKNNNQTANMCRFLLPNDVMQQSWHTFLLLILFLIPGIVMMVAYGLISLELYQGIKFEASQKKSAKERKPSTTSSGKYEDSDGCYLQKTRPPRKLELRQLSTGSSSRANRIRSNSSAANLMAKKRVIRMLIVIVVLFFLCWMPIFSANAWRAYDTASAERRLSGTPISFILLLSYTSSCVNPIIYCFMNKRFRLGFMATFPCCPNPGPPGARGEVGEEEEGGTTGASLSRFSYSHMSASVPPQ

D(3) dopamine receptor = D(3) dopamine receptor (Homo sapiens, UniProt P35462); assay: DRUGMATRIX: Dopamine D3 radioligand binding (ligand: [3H] Spiperone); type: cell membranes, CHO, Membrane; details: cho
D(3) dopamine receptor, sequence (P35462 whole entry): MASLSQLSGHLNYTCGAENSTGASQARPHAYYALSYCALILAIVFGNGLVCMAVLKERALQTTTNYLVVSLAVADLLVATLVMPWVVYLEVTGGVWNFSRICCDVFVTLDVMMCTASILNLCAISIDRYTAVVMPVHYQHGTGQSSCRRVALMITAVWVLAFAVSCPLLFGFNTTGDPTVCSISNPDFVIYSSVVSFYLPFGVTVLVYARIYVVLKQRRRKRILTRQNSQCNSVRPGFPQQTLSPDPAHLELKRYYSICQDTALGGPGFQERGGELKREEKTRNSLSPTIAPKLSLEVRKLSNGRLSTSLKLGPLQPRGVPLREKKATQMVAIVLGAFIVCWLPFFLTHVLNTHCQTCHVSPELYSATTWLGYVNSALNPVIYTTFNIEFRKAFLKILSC

[5] = biological target: T3, Muscarinic acetylcholine receptor M2 (Homo sapiens, UniProt P08172); type: cell membranes, CHO-K1, Membrane; details: cho-k1; note: in other assays of this panel Not Active means under 50% inhibition at 10 µM
T3 sequence (P08172 whole entry): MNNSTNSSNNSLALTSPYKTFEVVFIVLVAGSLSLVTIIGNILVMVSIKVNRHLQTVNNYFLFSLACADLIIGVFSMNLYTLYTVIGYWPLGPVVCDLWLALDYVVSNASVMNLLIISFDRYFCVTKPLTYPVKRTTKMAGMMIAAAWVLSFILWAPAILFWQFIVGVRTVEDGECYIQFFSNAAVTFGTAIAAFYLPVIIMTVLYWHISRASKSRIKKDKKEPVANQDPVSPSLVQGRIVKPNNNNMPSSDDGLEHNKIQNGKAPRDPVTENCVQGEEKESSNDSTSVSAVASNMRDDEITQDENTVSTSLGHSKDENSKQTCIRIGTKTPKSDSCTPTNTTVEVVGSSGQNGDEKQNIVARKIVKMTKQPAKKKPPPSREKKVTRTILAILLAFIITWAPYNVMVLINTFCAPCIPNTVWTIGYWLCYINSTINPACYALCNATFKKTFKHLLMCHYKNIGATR

[6] = biological target: T4, Nitric oxide synthase, inducible (Mus musculus, UniProt P29477); design: species or system Escherichia coli;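 note: inhibition of iNOS enzyme activity measured with L-arginine as substrate; in other assays of this panel Not Active means under 50% inhibition at 10 µM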
T4 sequence (P29477 whole entry): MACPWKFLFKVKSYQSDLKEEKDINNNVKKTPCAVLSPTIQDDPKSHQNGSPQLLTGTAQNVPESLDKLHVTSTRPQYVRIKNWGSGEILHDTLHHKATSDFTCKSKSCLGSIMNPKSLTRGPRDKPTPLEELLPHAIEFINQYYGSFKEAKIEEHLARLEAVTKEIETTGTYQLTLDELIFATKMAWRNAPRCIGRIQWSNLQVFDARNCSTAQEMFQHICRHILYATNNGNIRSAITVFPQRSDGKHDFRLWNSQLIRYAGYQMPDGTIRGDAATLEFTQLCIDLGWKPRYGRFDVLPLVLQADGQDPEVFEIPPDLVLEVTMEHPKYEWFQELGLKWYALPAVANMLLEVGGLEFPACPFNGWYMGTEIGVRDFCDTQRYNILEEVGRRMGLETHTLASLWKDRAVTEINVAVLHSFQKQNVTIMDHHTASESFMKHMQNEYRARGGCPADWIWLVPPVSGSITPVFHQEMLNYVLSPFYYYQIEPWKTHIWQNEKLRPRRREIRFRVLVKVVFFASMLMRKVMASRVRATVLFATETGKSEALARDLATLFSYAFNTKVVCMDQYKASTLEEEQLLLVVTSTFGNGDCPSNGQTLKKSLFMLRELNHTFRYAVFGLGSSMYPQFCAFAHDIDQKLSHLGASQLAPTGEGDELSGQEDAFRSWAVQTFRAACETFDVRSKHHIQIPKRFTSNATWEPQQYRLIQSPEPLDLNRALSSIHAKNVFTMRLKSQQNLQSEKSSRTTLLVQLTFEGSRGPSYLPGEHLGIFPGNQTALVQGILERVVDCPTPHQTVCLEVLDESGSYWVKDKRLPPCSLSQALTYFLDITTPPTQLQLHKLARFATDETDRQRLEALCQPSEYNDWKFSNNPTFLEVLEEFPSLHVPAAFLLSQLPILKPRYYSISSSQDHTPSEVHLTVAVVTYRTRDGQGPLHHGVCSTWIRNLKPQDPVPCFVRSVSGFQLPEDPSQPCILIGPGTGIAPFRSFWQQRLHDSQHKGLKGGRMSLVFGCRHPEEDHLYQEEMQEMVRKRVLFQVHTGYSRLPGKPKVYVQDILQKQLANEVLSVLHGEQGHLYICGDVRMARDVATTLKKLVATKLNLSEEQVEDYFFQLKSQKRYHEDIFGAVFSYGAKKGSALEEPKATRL

[7] = DRUGMATRIX: Phosphodiesterase PDE4 enzyme inhibition (substrate: [3H]cAMP + cAMP); details: u-937; Not Active = under 50% inhibition at 10 µM
[8] = biological target: Tyrosine-protein kinase Fyn (Homo sapiens, UniProt P06241); assay: biochemical; type: cell-based, Insect cells; details: insect cells
Tyrosine-protein kinase Fyn, sequence (P06241 whole entry): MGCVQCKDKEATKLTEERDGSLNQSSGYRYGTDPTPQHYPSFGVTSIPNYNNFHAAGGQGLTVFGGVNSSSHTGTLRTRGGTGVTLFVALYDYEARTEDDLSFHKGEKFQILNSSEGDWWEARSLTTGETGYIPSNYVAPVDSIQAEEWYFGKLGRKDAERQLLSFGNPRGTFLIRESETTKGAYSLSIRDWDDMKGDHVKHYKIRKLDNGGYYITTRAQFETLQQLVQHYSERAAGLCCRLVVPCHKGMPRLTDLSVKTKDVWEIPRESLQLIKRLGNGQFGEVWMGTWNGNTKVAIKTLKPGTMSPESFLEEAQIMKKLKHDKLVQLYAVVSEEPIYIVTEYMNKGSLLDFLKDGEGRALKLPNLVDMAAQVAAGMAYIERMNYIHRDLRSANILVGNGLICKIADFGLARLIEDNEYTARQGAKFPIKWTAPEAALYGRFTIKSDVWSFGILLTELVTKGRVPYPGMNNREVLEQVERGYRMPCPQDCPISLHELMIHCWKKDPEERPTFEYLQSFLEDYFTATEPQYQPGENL

[9] = biological target: Tyrosine-protein kinase Lck (Homo sapiens, UniProt P06239); assay: DRUGMATRIX: Protein Tyrosine Kinase, LCK enzyme inhibition (substrate: Poly(Glu:Tyr)); type: cell-based, Insect cells; details: insect cells; Not Active = under 50% inhibition at 10 µM
Tyrosine-protein kinase Lck, sequence (P06239 whole entry): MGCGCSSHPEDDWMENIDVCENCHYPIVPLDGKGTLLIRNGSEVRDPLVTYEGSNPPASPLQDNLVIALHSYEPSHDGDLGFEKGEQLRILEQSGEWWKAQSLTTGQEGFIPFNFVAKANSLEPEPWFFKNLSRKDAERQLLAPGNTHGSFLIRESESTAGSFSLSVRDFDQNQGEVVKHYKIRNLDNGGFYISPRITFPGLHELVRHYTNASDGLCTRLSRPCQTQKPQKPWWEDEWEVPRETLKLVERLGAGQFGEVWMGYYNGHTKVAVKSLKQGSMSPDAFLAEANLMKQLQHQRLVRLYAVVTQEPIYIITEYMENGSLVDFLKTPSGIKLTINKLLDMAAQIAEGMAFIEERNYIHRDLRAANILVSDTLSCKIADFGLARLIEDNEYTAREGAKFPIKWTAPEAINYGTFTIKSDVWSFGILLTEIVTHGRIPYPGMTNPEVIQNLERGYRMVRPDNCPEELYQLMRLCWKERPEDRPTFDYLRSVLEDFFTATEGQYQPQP

Beta-1 adrenergic receptor, sequence (P08588 whole entry): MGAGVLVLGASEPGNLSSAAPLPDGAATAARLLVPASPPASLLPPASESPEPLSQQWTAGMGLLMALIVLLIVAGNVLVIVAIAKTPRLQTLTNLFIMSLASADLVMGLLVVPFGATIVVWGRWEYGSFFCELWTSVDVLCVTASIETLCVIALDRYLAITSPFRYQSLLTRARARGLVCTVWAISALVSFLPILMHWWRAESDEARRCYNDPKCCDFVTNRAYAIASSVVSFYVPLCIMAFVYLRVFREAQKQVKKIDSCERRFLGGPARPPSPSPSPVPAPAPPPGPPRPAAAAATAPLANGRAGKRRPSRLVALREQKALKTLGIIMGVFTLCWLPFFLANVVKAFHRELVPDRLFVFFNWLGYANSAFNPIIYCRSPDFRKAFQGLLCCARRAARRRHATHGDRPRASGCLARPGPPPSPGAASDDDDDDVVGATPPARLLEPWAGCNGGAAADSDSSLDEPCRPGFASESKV

CC1=C(/C=C/C(C)=C/C=C/C(C)=C\C(=O)O)C(C)(C)CCC1 [ISOTRETINOIN]
Not Active: Ki [1] | IC50 [2] | Ki [2] | IC50 [3] | IC50 [4] | IC50 (D(3) dopamine receptor) | IC50 [5] | IC50 [6] | IC50 [7] | Ki [7] | IC50 [8] | IC50 [9]

CO[C@@H]1[C@@H](O[C@@H]2O[C@H](C)[C@@H](O[C@H]3C[C@@](C)(O)[C@@H](OC(=O)CC(C)C)[C@H](C)O3)[C@H](N(C)C)[C@H]2O)[C@@H](CC=O)C[C@@H](C)[C@@H](O)/C=C/C=C/C[C@@H](C)OC(=O)C[C@H]1O [KITASAMYCIN]
Not Active: IC50 [1] | IC50 [2] | Ki [2] | IC50 [3] | IC50 [4] | IC50 (D(3) dopamine receptor) | IC50 [5] | IC50 [6] | IC50 [7] | Ki [7] | IC50 [8] | IC50 [9]

Nc1nnc(-c2cccc(Cl)c2Cl)c(N)n1 [LAMOTRIGINE]
Not Active: IC50 [1] | IC50 [2] | Ki [2] | IC50 [3] | IC50 [4] | IC50 (D(3) dopamine receptor) | IC50 [5] | IC50 [6] | IC50 [7] | Ki [7] | IC50 [8] | IC50 [9]

CCC[C@@H]1C[C@@H](C(=O)N[C@@H]([C@H]2O[C@H](SC)[C@H](O)[C@@H](O)[C@H]2O)[C@@H](C)O)N(C)C1 [LINCOMYCIN]
Not Active: IC50 [1] | IC50 [2] | Ki [2] | IC50 [3] | IC50 [4] | IC50 (D(3) dopamine receptor) | IC50 [5] | IC50 [6] | IC50 [7] | Ki [7] | IC50 [8] | IC50 [9]

NCCCC[C@H](N[C@@H](CCc1ccccc1)C(=O)O)C(=O)N1CCC[C@H]1C(=O)O [LISINOPRIL ANHYDROUS]
Not Active: IC50 [1] | IC50 [2] | Ki [2] | IC50 [3] | IC50 [4] | IC50 (D(3) dopamine receptor) | IC50 [5] | IC50 [6] | IC50 [7] | Ki [7] | IC50 [8] | IC50 [9]

COS(C)(=O)=O [METHANESULFONIC ACID METHYL ESTER]
Not Active: IC50 [1] | IC50 [2] | Ki [2] | IC50 [3] | IC50 [4] | IC50 (D(3) dopamine receptor) | IC50 [5] | IC50 [6] | IC50 [7] | Ki [7] | IC50 [8] | IC50 [9]

COC(=O)c1ccc(O)cc1 [METHYLPARABEN]
Not Active: IC50 [1] | IC50 [2] | Ki [2] | IC50 [3] | IC50 [4] | IC50 (D(3) dopamine receptor) | IC50 [5] | IC50 [6] | IC50 [7] | Ki [7] | IC50 [8] | IC50 [9]

C[C@](N)(Cc1ccc(O)cc1)C(=O)O [METYROSINE]
Not Active: IC50 [1] | IC50 [2] | Ki [2] | IC50 [3] | IC50 [4] | IC50 (D(3) dopamine receptor) | IC50 [5] | IC50 [6] | IC50 [7] | Ki [7] | IC50 [8] | IC50 [9]
